In article PMC6017121, “New Thiazoline-Tetralin Derivatives and Biological Activity Evaluation” (Molecules : A Journal of Synthetic Chemistry and Natural …, 2018):

Tests used:
[1] = system: MCF-7 cells; assay: Annexin V-FITC/propidium iodide flow cytometry on MCF-7; format: cell-based, human; details: MCF-7 cell line, IC50 concentration; for % Early Apoptotic / % Late Apoptotic / % Necrotic / % Viable: 24 h
Experimental: (§1) Evaluation of apoptosis was carried out through the Annexin V-FITC Apoptosis Detection Kit from BD, Pharmingen, according to the manufacturer’s instruction. […] Then cells were rinsed with cold water twice and resuspended in Annexin V-FITC binding buffer at a concentration of 1 × 10^6 cells/mL. […] of Annexin V-FITC was used to stain the cells. After 15 min of incubation at 25 °C, the cell suspension was centrifugated for 5 min and cells were resuspended in Annexin V-FITC binding buffer. Propidium iodide ([…]) was added and the tubes were situated on ice and away from light. The fluorescence was measured using a flow cytometer. The results were analyzed by using FCSExpress software and represented as percentage of normal and apoptotic cells at various stages. […] The four areas in the diagrams stand for necrotic cells (Q1, positive for PI and negative for annexin/FITC, left square on the top), live cells (Q3, negative for annexin and PI, left square at the bottom), late apoptotic or necrotic cells (Q2, positive for annexin and PI, right square on the top) and apoptotic cells (Q4, negative for PI and positive for annexin, right square at the bottom), respectively. The experiment was repeated three times.

[2] = system: A549 cells; assay: DNA synthesis inhibition (BrdU) on A549
Experimental: The 5-bromo-2′-deoxy-uridine (BrdU) cell proliferation assay [48] was used to detect the proliferation of A549 and C6 cells. […] At the end of each day, the cells were labelled with 10 mL BrdU solution for 2 h and then fixed. Anti-BrdU-POD (100 mL) was added and incubated for 90 min. Finally, microtiter plates were washed with phosphate buffered saline (PBS) three times and the cells were incubated with substrate solution until the color was sufficient for photometric detection. […] The growth percentage was evaluated spectrophotometrically versus untreated controls with used cell viability of growth assay. Results for each spectrophotometrical measure were noticed as percent of growth inhibition. All experiments were done in triplicates.
Mean percent absorbance of untreated control cells were assumed 0%. […] Data points represent means for three independent wells ± SD. p < 0.05.

[3] = system: human breast adenocarcinoma cell line (MCF-7); assay: MTT cytotoxicity assay on MCF-7; format: cell-based; details: for IC50: MTT, 24 h incubation; for SI MCF-7 (selectivity index): NIH/3T3 versus MCF-7
Experimental: (§2) This is a colorimetric assay that measures the reduction of 3-(4,5-dimethylthiazol-2-yl)-2,4,diphenyltetrazolium bromide (MTT) by mitochondria. All final compounds were tested against human breast adenocarcinoma cell line (MCF-7), human lung carcinoma cell line (A549) and mouse embryooblast cell line (NIH/3T3) to determine their cytotoxic profile. Cancer cells were cultured in RPMI medium (Hyclone, Thermo Scientific, Waltham, MA, USA) at 37 °C in a humidified atmosphere of 95% air and 5% CO2. The studied cells were situated at 2 × 10^4 cells into each well of 96-well microtiter tissue culture plates (Nunc, Denmark) and incubated for 24 h. After that, test compounds were dissolved in DMSO and added to culture wells at varying concentrations (85–1000 µM). After a 24 h incubating period, […] MTT solution (5 mg/mL MTT powder in PBS) was added to each well and the cells were incubated for 4 h at 37 °C. The purple formazan crystals produced were dissolved in DMSO and the absorbance was read by ELISA reader (OD570 nm). The percent values of cell proliferations were calculated relative to controls, whose cell proliferations were accepted as 100% [47].

[4] = system: human lung carcinoma cell line (A549); assay: MTT cytotoxicity assay on A549; format: cell-based; details: for IC50: MTT, 24 h incubation; for SI A549 (selectivity index): NIH/3T3 versus A549
Experimental: as §2

[5] = system: A549 cells; assay: Annexin V-FITC/propidium iodide flow cytometry on A549; format: cell-based, human; details: A549 cell line, IC50 concentration; for % Early Apoptotic / % Late Apoptotic / % Necrotic / % Viable: 24 h
Experimental: as §1

[6] = biological target: acetylcholinesterase (AChE) (Homo sapiens, UniProt P22303); assay: biochemical; details: 80 µg/mL (~160 µM)
Experimental: (§3) In order to determine the acetyl- and butyrylcholinesterase enzyme inhibitions, experiments were carried out by making some changes in the method developed by Ellman. Samples were prepared by dissolving in the appropriate solvent. Adding 20 μL enzyme solution (AChE or BuChE, 1 U/mL) and 10 μL sample solution to 2.4 mL buffer solution and it was incubated for 15 min at 37 °C. After incubation, 50 μL DTNB and 75 mM ATCI solution or 20 μL of 25 mM BTCI solution were added and allowed the mixture to incubate at room temperature for 30 min. For the control group, only 10 μL of solvent was added instead of the sample solution provided all protocols are the same. […] Experiments were run in triplicate. The inhibition fractions of AChE […] BuChE enzymes were calculated using the following equation:I(%) = 100 − ([…]) × 100

[7] = biological target: butyrylcholinesterase (BuChE) (Homo sapiens, UniProt P06276); assay: biochemical; details: 80 µg/mL (~160 µM)
Experimental: as §3

[8] = system: mouse embryoblast cell line (NIH/3T3); assay: MTT cytotoxicity assay on NIH/3T3 (healthy cells); format: cell-based; details: NIH3T3, 24 h incubation
Experimental: as §2

[9] = system: MCF-7 cells; assay: DNA synthesis inhibition (BrdU) on MCF-7; details: for DNA synthesis inhibition on MCF-7 at IC50/2: IC50/2 concentration (4b 34.6 μM; 4d 36.9 μM, b49: 35.9 μM)
[10] = Homo sapiens, MCF7, 96 h, read-out: DNA synthesis inhibition on MCF-7 at IC50

Sequence of acetylcholinesterase (AChE) (P22303 32-614, species assumed): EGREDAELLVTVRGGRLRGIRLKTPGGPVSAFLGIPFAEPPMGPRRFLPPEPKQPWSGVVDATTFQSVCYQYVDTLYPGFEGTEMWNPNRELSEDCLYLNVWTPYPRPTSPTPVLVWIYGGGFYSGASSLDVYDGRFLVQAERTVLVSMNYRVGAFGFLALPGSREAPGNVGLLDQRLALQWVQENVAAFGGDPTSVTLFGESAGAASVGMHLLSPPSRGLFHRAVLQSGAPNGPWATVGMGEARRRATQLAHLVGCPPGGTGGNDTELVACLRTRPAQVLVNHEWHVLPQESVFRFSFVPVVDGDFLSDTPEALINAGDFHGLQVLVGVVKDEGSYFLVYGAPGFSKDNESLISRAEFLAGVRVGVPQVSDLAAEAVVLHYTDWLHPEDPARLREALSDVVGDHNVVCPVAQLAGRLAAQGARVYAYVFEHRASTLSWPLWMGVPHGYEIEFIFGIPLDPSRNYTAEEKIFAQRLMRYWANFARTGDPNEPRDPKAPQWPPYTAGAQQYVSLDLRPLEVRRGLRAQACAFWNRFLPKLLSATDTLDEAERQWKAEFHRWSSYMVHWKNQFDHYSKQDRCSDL
Sequence of butyrylcholinesterase (BuChE) (P06276 29-602): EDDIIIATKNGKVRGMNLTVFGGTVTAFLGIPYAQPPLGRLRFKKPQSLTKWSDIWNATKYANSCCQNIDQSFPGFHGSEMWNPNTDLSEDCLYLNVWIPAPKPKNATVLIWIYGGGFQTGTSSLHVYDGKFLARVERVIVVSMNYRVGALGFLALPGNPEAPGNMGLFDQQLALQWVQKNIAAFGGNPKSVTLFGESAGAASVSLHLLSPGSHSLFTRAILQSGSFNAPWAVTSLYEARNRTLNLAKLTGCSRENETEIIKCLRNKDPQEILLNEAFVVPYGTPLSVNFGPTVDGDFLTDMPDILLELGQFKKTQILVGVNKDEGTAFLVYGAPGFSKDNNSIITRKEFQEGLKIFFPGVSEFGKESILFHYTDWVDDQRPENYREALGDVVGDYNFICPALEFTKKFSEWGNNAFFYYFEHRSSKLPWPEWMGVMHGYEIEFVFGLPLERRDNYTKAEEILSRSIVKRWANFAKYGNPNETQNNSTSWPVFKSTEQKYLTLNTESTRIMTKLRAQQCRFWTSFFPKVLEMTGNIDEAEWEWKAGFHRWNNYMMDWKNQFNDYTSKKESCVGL

Row | SMILES | % Early Apoptotic [1] | % Late Apoptotic [1] | % Necrotic [1] | apoptosis (early + late apoptotic cell percentage) A549 [5] | % Early Apoptotic [5] | % Late Apoptotic [5] | % Necrotic [5] | inhibition at 160 µM [6] | inhibition at 160 µM [7] | IC50 ([3]; Homo sapiens, MCF7) | SI MCF-7 (selectivity index) [3] | IC50 ([4]; Homo sapiens, A549) | SI A549 (selectivity index) [4] | IC50 [8] | % Viable [5] | inhibition at 80 µg/mL [7] | further results
1 | N.N.[Cl][Pt][Cl] [Cisplatin, cisplatin, reference compound] | 2.8% | 27.1% | 28.1% | 40.2% | 14.9% | 25.3% | 6.7% |  |  |  |  |  |  |  |  |  | apoptosis (early + late apoptotic cell percentage) MCF-7 [1]: 29.9%; DNA synthesis inhibition on A549 at IC50/2 ([2]; IC50/2 concentration (4h 24.3 μM; cisplatin 54.2 μM)): 32.86%; DNA synthesis inhibition on A549 at IC50 ([2]; IC50 concentration (4h 48.6 μM; cisplatin 108.3 μM)): 50.33%; IC50 [3]: 100 ± 3.3 µM; IC50 [4]: 108 ± 11.8 µM
2 | O=C(COc1ccc2c(c1)CCCC2)NN=c1scc(-c2ccccc2)n1C1CCCCC1 [Compound 4a, N′-(3-Cyclohexyl-4-phenylthiazole-2(3H)-ylidene)-2-[(5,6,7,8-tetrahydronaphthalen-2-yl)oxy]acetohydrazide] |  |  |  | over 50% | 7.4% | 48.3% | 12.8% | 38.3 ± 2.18% | 28 ± 1.88% | > 1000 µM | < 0.2 | 158 ± 14.8 µM | 1.3 | 206 ± 15.3 µM | 31.5% |  | 
3 | COc1ccc(-c2csc(=NNC(=O)COc3ccc4c(c3)CCCC4)n2C2CCCCC2)cc1 [Compound 4b, N′-[3-Cyclohexyl-4-(4-methoxyphenyl)thiazole-2(3H)-ylidene]-2-[(5,6,7,8-tetrahydronaphthalen-2-yl)oxy]acetohydrazide] | 0.7% | 29.1% | 63.8% | 73.6% | 6.6% | 67.0% | 15.6% | 11.1 ± 1.48% | 15.9 ± 1.72% | 69.2 ± 5.8 µM | 0.8 | 138 ± 7.2 µM | 0.4 | 55.7 ± 1.2 µM | 10.9% |  | apoptosis (early + late apoptotic cell percentage) MCF-7 [1]: 29.8%; % Viable [1]: 6.3%; inhibition at 69.2 µM [9, 10]: 48.5%; DNA synthesis inhibition on MCF-7 at IC50/2 [9]: 31.39%
4 | O=C(COc1ccc2c(c1)CCCC2)NN=c1scc(-c2ccccc2)n1-c1ccccc1 [Compound 4c, N′-[3,4-Diphenylthiazole-2(3H)-ylidene]-2-[(5,6,7,8-tetrahydronaphthalen-2-yl)oxy]acetohydrazide] |  |  |  |  |  |  |  | 19.3 ± 1.87% | 16.48 ± 0.08% | 297 ± 46.6 µM | > 3.4 | > 1000 µM |  | > 1000 µM |  |  | 
5 | Cc1ccc(-c2csc(=NNC(=O)COc3ccc4c(c3)CCCC4)n2-c2ccccc2)cc1 [Compound 4d, N′-[3-Phenyl-4-(4-methylphenyl)thiazole-2(3H)-ylidene]-2-[(5,6,7,8-tetrahydronaphthalen-2-yl)oxy]acetohydrazide] | 1.1% | 12.1% | 36.1% |  |  |  |  | 43.2 ± 1.56% | 33.2 ± 2.38% | 71.8 ± 12.5 µM | > 13.9 | > 1000 µM |  | > 1000 µM |  |  | % Viable [1]: 50.7%; inhibition at 71.8 µM [9, 10]: 72.2%; DNA synthesis inhibition on MCF-7 at IC50/2 [9]: 47.75%
6 | COc1ccc(-c2csc(=NNC(=O)COc3ccc4c(c3)CCCC4)n2-c2ccccc2)cc1 [Compound 4e, N′-[3-Phenyl-4-(4-methoxyphenyl)thiazole-2(3H)-ylidene]-2-[(5,6,7,8-tetrahydronaphthalen-2-yl)oxy]acetohydrazide] |  |  |  |  |  |  |  | 10.8 ± 0.94% |  | 91.4 ± 9.8 µM | > 10.9 | 708 ± 83.3 µM | > 1.4 | > 1000 µM |  | < 0% | apoptosis (early + late apoptotic cell percentage) MCF-7 [1]: 32.5%
7 | O=C(COc1ccc2c(c1)CCCC2)NN=c1scc(-c2ccc(Br)cc2)n1-c1ccccc1 [Compound 4f, N′-[3-Phenyl-4-(4-bromophenyl)thiazole-2(3H)-ylidene]-2-[(5,6,7,8-tetrahydronaphthalen-2-yl)oxy]acetohydrazide] |  |  |  | over 41.5% | 16.5% | 29.3% | 6.5% | 42.9 ± 2.84% |  | 281 ± 56.2 µM | 0.5 | 54.3 ± 6.8 µM | 2.7 | 147 ± 5.4 µM | 47.7% | < 0% | 
8 | O=C(COc1ccc2c(c1)CCCC2)NN=c1scc(-c2ccc(Cl)cc2)n1-c1ccccc1 [Compound 4g, N′-[3-Phenyl-4-(4-chlorophenyl)thiazole-2(3H)-ylidene]-2-[(5,6,7,8-tetrahydronaphthalen-2-yl)oxy]acetohydrazide] |  |  |  | over 41.5% | 18.7% | 26.0% | 5.8% | 24.4 ± 1.2% |  | 483 ± 31.2 µM | 0.5 | 28.6 ± 4.1 µM | 7.8 | 224 ± 20.5 µM | 49.4% | < 0% | 
9 | O=C(COc1ccc2c(c1)CCCC2)NN=c1scc(-c2cccc([N+](=O)[O-])c2)n1-c1ccccc1 [Compound 4i, N′-[3-Phenyl-4-(3-nitrophenyl)thiazole-2(3H)-ylidene]-2-[(5,6,7,8-tetrahydronaphthalen-2-yl)oxy]acetohydrazide] |  |  |  |  |  |  |  | 41.85 ± 0.23% |  | > 1000 µM |  | > 1000 µM |  | > 1000 µM |  | < 0% | 
10 | O=C(COc1ccc2c(c1)CCCC2)NN=c1scc(-c2ccc([N+](=O)[O-])cc2)n1-c1ccccc1 [Compound 4j, N′-[3-Phenyl-4-(4-nitrophenyl)thiazole-2(3H)-ylidene]-2-[(5,6,7,8-tetrahydronaphthalen-2-yl)oxy]acetohydrazide] |  |  |  | over 41.5% | 11.2% | 30.3% | 11.4% | 45 ± 1.6% |  | > 1000 µM |  | 49 ± 1.41 µM | > 20.4 | > 1000 µM | 47.0% | < 0% | 
11 | O=C(COc1ccc2c(c1)CCCC2)NN=c1scc(-c2cccc(Cl)c2Cl)n1-c1ccccc1 [Compound 4k, N′-[3-Phenyl-4-(2,3-dichlorophenyl)thiazole-2(3H)-ylidene]-2-[(5,6,7,8-tetrahydronaphthalen-2-yl)oxy]acetohydrazide] | 2.4% | 8.9% | 34.4% |  |  |  |  | 15.2 ± 1.99% |  | 153 ± 27.5 µM | 1.1 | > 1000 µM |  | 165 ± 11 µM |  | < 0% | % Viable [1]: 54.3%
